The record followed here is patent US9227971B2, “Pyrazolo[1,5-a]pyrimidine compounds as mTOR inhibitors” (Merck Sharp & Dohme Corp., priority 2010, dated 2016).

For test [1], the system named is phosphorylated AKT Ser473 (pAKT S473), mTORC2 activity, PC3 cells. Briefly: mTOR target engagement assay, immunofluorescent cell-based, pAKT S473 readout (mTORC2 activity). Conditions: Homo sapiens. Summed up: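 After blocking, cells were stained overnight at 4 °C with anti-pAKT S473 antibody, then a fluorescent secondary; inhibition was read as reduced fluorescence intensity.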

The subject of test [2] is phosphorylated 4E-BP1 Thr37/46 (p4E-BP1 Thr37/46), mTORC1 activity, PC3 cells. Nature of the test: mTOR target engagement assay, immunofluorescent cell-based, p4E-BP1 Thr37/46 readout (mTORC1 activity). Conditions: Homo sapiens. Summed up:
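Cell-based immunofluorescence in PC3 cells: serially diluted compounds (0.25% DMSO, 5% FBS) applied for ninety minutes at 37° C before fixation and overnight 4° C staining of p4E-BP1 Thr37/46. Untreated DMSO wells set maximal phosphorylation; IC50 obtained by logistic fitting.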

Where [3] appears, read: PC-3, PC3 cells, compound treatment ninety minutes at 37° C.
The mark [4] stands for this setting: PC-3, PC3 cells, compound treatment ninety minutes at 37° C., read-out: p4E-BP1 Thr37/46 IC50.
[5] abbreviates: PC-3, Table 3-1, PC3 cells, read-out: p4E-BP1 Thr37/46 IC50.

Like-named read-outs stand apart in the source and are kept apart here.

Regarding `CC(=O)c1c([C@@H]2C[C@H]3CC[C@@H](C2)N3C(=O)c2cc[nH]c2)nc2c(-c3ccc(C(C)(C)O)nc3)cnn2c1N` [Compound 7.16, 1-(5-((1R,3s,5S)-8-(1H-pyrrole-3-carbonyl)-8-azabicyclo[3.2.1]octan-3-yl)-7-amino-3-(6-(2-hydroxypropan-2-yl)pyridin-3-yl)pyrazolo[1,5-a]pyrimidin-6-yl)ethanone], the IC50 in test [1] (setting [3]) was in the range of 1 to 100 nM; in test [2] (setting [4]) it was 100 to 1000 nM.
Take `CS(=O)(=O)c1c([C@@H]2C[C@H]3CC[C@@H](C2)N3C(=O)c2ccnc(N)n2)nc2c(-c3ccc(-c4ccccc4)nc3)cnn2c1N` [Compound 3.143, ((1R,3s,5S)-3-(7-amino-6-(methylsulfonyl)-3-(6-phenylpyridin-3-yl)pyrazolo[1,5-a]pyrimidin-5-yl)-8-azabicyclo[3.2.1]octan-8-yl)(2-aminopyrimidin-4-yl)methanone]: the IC50 is 100 to 1000 nM in test [1] (PC-3, Table 3-1, PC3 cells) and 100 to 1000 nM in test [2] (setting [5]).
For `NC(=O)N1[C@@H]2CC[C@H]1C[C@H](c1nc3c(-c4ccc(-c5ccccc5)nc4)cnn3c(N)c1C1CC1)C2` [Compound 4.6, (1R,3s,5S)-3-(7-amino-6-cyclopropyl-3-(6-phenylpyridin-3-yl)pyrazolo[1,5a]pyrimidin-5-yl)-8-azabicyclo[3.2.1]octane-8-carboxamide], the IC50 in test [1] (setting [3]) and in test [2] (setting [4]) was 1 to 100 nM in each case.
On to `CS(=O)(=O)c1c([C@@H]2C[C@H]3CC[C@@H](C2)N3C(=O)c2nnc[nH]2)nc2c(-c3ccc(-n4cccn4)nc3)cnn2c1N` [Compound 3.150, ((1R,3s,5S)-3-(3-(6-(1H-pyrazol-1-yl)pyridin-3-yl)-7-amino-6-(methylsulfonyl)pyrazolo[1,5-a]pyrimidin-5-yl)-8-azabicyclo[3.2.1]octan-8-yl)(4H-1,2,4-triazol-3-yl)methanone], for which the IC50 was 1 to 100 nM in test [1] (PC-3, Table 3-1, PC3 cells) and 1 to 100 nM in test [2] (setting [5]).
Regarding `COc1c(F)cc(-c2ccc(-c3cnn4c(N)c(C(C)=O)c([C@@H]5C[C@H]6CC[C@@H](C5)N6C(=O)c5nnc[nH]5)nc34)cn2)cc1F` [Compound 1.1.64, 1-(5-((1R,3s,5S)-8-(4H-1,2,4-triazole-3-carbonyl)-8-azabicyclo[3.2.1]octan-3-yl)-7-amino-3-(6-(3,5-difluoro-4-methoxyphenyl)pyridin-3-yl)pyrazolo[1,5-a]pyrimidin-6-yl)ethanone], the IC50 in test [1] (setting [3]) and in test [2] (setting [4]) was 100 to 1000 nM each time.
For the molecule `Cc1[nH]nc(-c2ccc(-c3cnn4c(N)c(C5CC5)c([C@@H]5C[C@H]6CC[C@@H](C5)N6C(=O)CO)nc34)cn2)c1F` [Compound 4.20, 1-((1R,3s,5S)-3-(7-amino-6-cyclopropyl-3-(6-(4-fluoro-5-methyl-1H-pyrazol-3-yl)pyridin-3-yl)pyrazolo[1,5-a]pyrimidin-5-yl)-8-azabicyclo[3.2.1]octan-8-yl)-2-hydroxyethanone], the IC50 in test [1] (setting [3]) and in test [2] (setting [4]) was 100 to 1000 nM throughout.
For the molecule `CC(=O)c1c([C@@H]2C[C@H]3CC[C@@H](C2)N3C(=O)CO)nc2c(-c3ccc(C(C)(C)O)nc3)cnn2c1N` [Compound 7.8, 1-((1R,3s,5S)-3-(6-acetyl-7-amino-3-(6-(2-hydroxypropan-2-yl)pyridin-3-yl)pyrazolo[1,5-a]pyrimidin-5-yl)-8-azabicyclo[3.2.1]octan-8-yl)-2-hydroxyethanone], the IC50 in test [1] (setting [3]) and in test [2] (setting [4]) was 100 to 1000 nM throughout.
Regarding `COc1cc(F)cc2cc(-c3cnn4c(N)c(C(C)=O)c([C@@H]5C[C@H]6CC[C@@H](C5)N6C(=O)c5nnc[nH]5)nc34)cnc12` [Compound 1.1.182, 1-(5-((1R,3r,5S)-8-(4H-1,2,4-triazole-3-carbonyl)-8-azabicyclo[3.2.1]octan-3-yl)-7-amino-3-(6-fluoro-8-methoxyquinolin-3-yl)pyrazolo[1,5-a]pyrimidin-6-yl)ethanone], the IC50 in test [1] (setting [3]) and in test [2] (setting [4]) was 1 to 100 nM throughout.
For the molecule `CS(=O)(=O)c1c([C@@H]2C[C@H]3CC[C@@H](C2)N3C(=O)c2ccn[nH]2)nc2c(-c3ccc(-c4ccccc4)nc3)cnn2c1N` [Compound 3.74, ((1R,3s,5S)-3-(7-amino-6-(methylsulfonyl)-3-(6-phenylpyridin-3-yl)pyrazolo[1,5-a]pyrimidin-5-yl)-8-azabicyclo[3.2.1]octan-8-yl)(1H-pyrazol-5-yl)methanone], the IC50 fell in the range of 1 to 100 nM in test [1] (PC-3, Table 3-1, PC3 cells) and 1 to 100 nM in test [2] (setting [5]).
On to `Nc1cc([C@@H]2C[C@H]3CC[C@@H](C2)N3C(=O)[C@H]2CCCN2)nc2c(-c3ccc(-c4ccccc4)nc3)cnn12` [Compound 2.19, ((1R,3S,5S)-3-(7-amino-3-(6-phenylpyridin-3-yl)pyrazolo[1,5-a]pyrimidin-5-yl)-8-azabicyclo[3.2.1]octan-8-yl)((R)-pyrrolidin-2-yl)methanone], for which the IC50 in test [1] (setting [3]) is 100 to 1000 nM; in test [2] (setting [4]) it was 1000 to 10000 nM.
For `COCCOc1ccc(-c2ccc(-c3cnn4c(N)c(S(C)(=O)=O)c([C@@H]5C[C@H]6CC[C@@H](C5)N6C(=O)c5nnc[nH]5)nc34)cn2)cc1` [Compound 3.56, ((1R,3s,5S)-3-(7-amino-3-(6-(4-(2-methoxyethoxy)phenyl)pyridin-3-yl)-6-(methylsulfonyl)pyrazolo[1,5-a]pyrimidin-5-yl)-8-azabicyclo[3.2.1]octan-8-yl)(4H-1,2,4-triazol-3-yl)methanone], the IC50 in test [1] (PC-3, Table 3-1, PC3 cells) lay within 100 to 1000 nM; in test [2] (setting [5]) it was 100 to 1000 nM.
For `CC(=O)c1c([C@@H]2C[C@H]3CC[C@@H](C2)N3C(=O)[C@H](C)O)nc2c(-c3ccc(-c4ccccc4)nc3)cnn2c1N` [Compound 1.1.8, (S)-1-((1R,3R,5S)-3-(6-acetyl-7-amino-3-(6-phenylpyridin-3-yl)pyrazolo[1,5-a]pyrimidin-5-yl)-8-azabicyclo[3.2.1]octan-8-yl)-2-hydroxypropan-1-one], the values for the IC50 in test [1] (setting [3]) and in test [2] (setting [4]) were 1 to 100 nM and 100 to 1000 nM, respectively.
Turning to `CC(=O)c1c([C@@H]2C[C@H]3CC[C@@H](C2)N3C(=O)CF)nc2c(-c3ccc(-c4ncc[nH]4)nc3)cnn2c1N` [Compound 6.22, 1-((1R,3s,5S)-3-(3-(6-(1H-imidazol-2-yl)pyridin-3-yl)-6-acetyl-7-aminopyrazolo[1,5-a]pyrimidin-5-yl)-8-azabicyclo[3.2.1]octan-8-yl)-2-fluoroethanone], the IC50 in test [1] (PC-3, Table 6-1, PC3 cells) is 1 to 100 nM; in test [2] (PC-3, read-out: p4E-BP1 Thr37/46 IC50), 1 to 100 nM.
Regarding `Nc1c(C2CC2)c([C@@H]2C[C@H]3CC[C@@H](C2)N3C(=O)c2nnc[nH]2)nc2c(-c3ccc(C(N)(C(F)(F)F)C(F)(F)F)nc3)cnn12` [Compound 7.85, ((1R,3s,5S)-3-(7-amino-3-(6-(2-amino-1,1,1,3,3,3-hexafluoropropan-2-yl)pyridin-3-yl)-6-cyclopropylpyrazolo [1,5-a]pyrimidin-5-yl)-8-azabicyclo[3.2.1]octan-8-yl)(4H-1,2,4-triazol-3-yl)methanone], the IC50 in test [1] (PC-3, PC3 cells) lay in the range of 1000 to 10000 nM; in test [2] (PC-3, PC3 cells, read-out: p4E-BP1 Thr37/46 IC50), 1000 to 10000 nM.
On to `CC(C)S(=O)(=O)c1c([C@@H]2C[C@H]3CC[C@@H](C2)N3C(=O)c2nnc[nH]2)nc2c(-c3ccc(-c4ccccc4)nc3)cnn2c1N` [Compound 3.163, ((1R,3s,5S)-3-(7-amino-6-(isopropylsulfonyl)-3-(6-phenylpyridin-3-yl)pyrazolo[1,5-a]pyrimidin-5-yl)-8-azabicyclo[3.2.1]octan-8-yl)(4H-1,2,4-triazol-3-yl)methanone], for which the IC50 in test [1] (PC-3, Table 3-1, PC3 cells) lay in the range of 100 to 1000 nM; in test [2] (setting [5]) it was 100 to 1000 nM.
`Nc1c(C2CC2)c([C@@H]2C[C@H]3CC[C@@H](C2)N3C(=O)NCCO)nc2c(-c3ccc(-c4ccccc4)nc3)cnn12` [Compound 4.8, (1R,3s,5S)-3-(7-amino-6-cyclopropyl-3-(6-phenylpyridin-3-yl)pyrazolo[1,5-a]pyrimidin-5-yl)-N-(2-hydroxyethyl)-8-azabicyclo[3.2.1]octane-8-carboxamide]: the IC50 in test [1] (setting [3]) was in the range of 1 to 100 nM; in test [2] (setting [4]), 100 to 1000 nM.
Take `Nc1c(C2CC2)c([C@@H]2C[C@H]3CC[C@@H](C2)N3C(=O)c2nnc[nH]2)nc2c(-c3ccc(C4(O)CCC4)nc3)cnn12` [Compound 7.43, ((1R,3s,5S)-3-(7-amino-6-cyclopropyl-3-(6-(1-hydroxycyclobutyl)pyridin-3-yl)pyrazolo[1,5-a]pyrimidin-5-yl)-8-azabicyclo[3.2.1]octan-8-yl)(4H-1,2,4-triazol-3-yl)methanone]: the IC50 in test [1] (PC-3, Table 7-8, PC3 cells) is 100 to 1000 nM; in test [2] (PC-3, Table 7-8, PC3 cells, read-out: p4E-BP1 Thr37/46 IC50), 100 to 1000 nM.
For the molecule `CS(=O)(=O)c1c([C@@H]2C[C@H]3CC[C@@H](C2)N3C(=O)c2nc[nH]n2)nc2c(-c3ccc(-c4ccccc4)nc3)cnn2c1N` [Compound 3.2, ((1R,3s,5S)-3-(7-amino-6-(methylsulfonyl)-3-(6-phenylpyridin-3-yl)pyrazolo[1,5-a]pyrimidin-5-yl)-8-azabicyclo[3.2.1]octan-8-yl)(1H-1,2,4-triazol-3-yl)methanone], the IC50 in test [1] (PC-3, Table 3-1, PC3 cells) fell in the range of 1 to 100 nM; in test [2] (setting [5]) it was 1 to 100 nM.
As for `CC(=O)c1c([C@@H]2C[C@H]3CC[C@@H](C2)N3C(=O)c2nnc(C)[nH]2)nc2c(-c3ccc(C4(O)CCC4)nc3)cnn2c1N` [Compound 7.17, 1-(7-amino-3-(6-(1-hydroxycyclobutyl)pyridin-3-yl)-5-((1R,3s,5S)-8-(3-methyl-1H-1,2,4-triazole-5-carbonyl)-8-azabicyclo[3.2.1]octan-3-yl)pyrazolo[1,5-a]pyrimidin-6-yl)ethanone], the IC50 in test [1] (setting [3]) and in test [2] (setting [4]) was 100 to 1000 nM each time.
